Source: patent US7977332B2, “Insecticidal N-(heteroarylalkyl)alkanediamine derivatives” (FMC Corporation, priority 2003, dated 2011)

Each compound was assayed on tobacco budworm (Heliothis virescens [Fabricius]) (assay: surface-treated diet test against tobacco budworm). Conditions: 0.25 millimolar on the surface of the diet; second instar larvae; five-day exposure.
Assay type: in vivo
Description: Candidate insecticides were evaluated for activity against the tobacco budworm (Heliothis virescens [Fabricius]) in a surface-treated diet test.
In this test one mL of molten (65-70° C.) wheat germ-based artificial diet was pipetted into each well of a four by six (24 well) multi-well plate (ID# 430345-15.5 mm dia.×17.6 mm deep; Corning Costar Corp., One Alewife Center, Cambridge, Mass. 02140). The diet was allowed to cool to ambient temperature before treatment with candidate insecticide.
For a determination of insecticidal activity, solutions of the candidate insecticides were prepared for testing using a Packard 204DT Multiprobe® Robotic System (Packard Instrument Company, 800 Research Parkway, Meriden, Conn. 06450), in which the robot first diluted a standard 50 millimolar DMSO solution of candidate insecticide with a 1:1 water/acetone solution (V/V) in a ratio of 1:7 stock solution to water/acetone. The robot subsequently pipetted 40 microliters of the so-prepared solution onto the surface of the diet in each of three wells in the 24 multi-well plate. The process was repeated with solutions of seven other candidate insecticides. Once treated, the contents of the multi-well plate were allowed to dry, leaving 0.25 millimoles of candidate insecticide on the surface of the diet, or a concentration of 0.25 millimolar. Appropriate untreated controls containing only DMSO on the diet surface were also included in this test.
For evaluations of the insecticidal activity of a candidate insecticide at varying rates of application, the test was established as described above using sub-multiples of the standard 50 millimolar DMSO solution of candidate insecticide. For example, the standard 50 millimolar solution was diluted by the robot with DMSO to give 5, 0.5, 0.05, 0.005, 0.0005 millimolar, or more dilute solutions of the candidate insecticide. In these evaluations there were six replicates of each rate of application placed on the surface of the diet in the 24 multi-well plate, for a total of four rates of application of candidate insecticide in each plate.
In each well of the test plate was placed one second instar tobacco budworm larvea, each weighing approximately five milligrams. After the larvae were placed in each well, the plate was sealed with clear polyfilm adhesive tape. The tape over each well was perforated to ensure an adequate air supply. The plates were then held in a growth chamber at 25° C. and 60% relative humidity for five days (light 14 hours/day).
After the five-day exposure period insecticidal activity for each rate of application of candidate insecticide was assessed as percent inhibition of insect weight relative to the weight of insects from untreated controls, and percent mortality when compared to the total number of insects infested.
The test compounds of formula I are identified by numbers that correspond to those in Table 1.

Row | Structure (SMILES) | Percent Mortality
1 | C=CCN(CCNC(=C[N+](=O)[O-])SCc1ccc(C(F)(F)F)cc1)Cc1ccc(Cl)nc1 [Compound 328] | 83%
2 | CSC(=C[N+](=O)[O-])NCCN(CCC(F)(F)F)Cc1ccc(Cl)nc1 [Compound 3] | 50%
3 | CSC(=C[N+](=O)[O-])NCCN(CC#N)Cc1ccc(Cl)nc1 [Compound 10] | 17%

Same assay, conditions: 0.25 millimolar on the surface of the diet; second instar larvae; five-day exposure; insect weight relative to untreated controls

Row | Structure (SMILES) | Percent Growth Inhibition
4 | CSC(=C[N+](=O)[O-])NCCN(CC#Cc1ccc(F)cc1)Cc1ccc(Cl)nc1 [Compound 302] | 97%
5 | COCCOCCN(CCNC(=C[N+](=O)[O-])SC)Cc1ccc(Cl)nc1 [Compound 7] | 99%
6 | C=CCN(CCNC(=C[N+](=O)[O-])SC)Cc1ccc(Cl)nc1 [Compound 220] | 100%
7 | C#CCN(CCNC(=C[N+](=O)[O-])OCCOCCOC)Cc1ccc(Cl)nc1 [Compound 247] | 100%
8 | C=CCN(CCNC(=C[N+](=O)[O-])SCc1ccc(C(F)(F)F)cc1)Cc1ccc(Cl)nc1 [Compound 328] | 98%
9 | C=CCN(CCNC(=C[N+](=O)[O-])SCC1CCCCC1)Cc1ccc(Cl)nc1 [Compound 221] | 100%
10 | CC#CCN(CCNC(=C[N+](=O)[O-])SC)Cc1ccc(Cl)nc1 [Compound 253] | 100%
11 | C=CCCN(CCNC(=C[N+](=O)[O-])SC)Cc1ccc(Cl)nc1 [Compound 222] | 100%
12 | C#CCN(CCNC(=C[N+](=O)[O-])OCC)Cc1ccc(Cl)nc1 [Compound 245] | 100%
13 | COC(=C[N+](=O)[O-])NCCN(Cc1ccc(Cl)nc1)Cc1ccc(Cl)nc1 [Compound 187] | 50%
14 | Cc1ccccc1CSC(=C[N+](=O)[O-])NCCN(Cc1ccc(Cl)nc1)Cc1ccc(Cl)nc1 [Compound 319] | 10%
15 | COc1ccccc1CSC(=C[N+](=O)[O-])NCCN(Cc1ccc(Cl)nc1)Cc1ccc(Cl)nc1 [Compound 325] | 100%
16 | O=[N+]([O-])C=C(NCCN(Cc1ccc(Cl)nc1)Cc1ccc(Cl)nc1)SCc1ccccc1C(F)(F)F [Compound 322] | 100%
17 | CSC(=C[N+](=O)[O-])NCCN(Cc1ccc(Cl)nc1)Cc1ccsc1 [Compound 17] | 99%
18 | CSC(=C[N+](=O)[O-])NCCN(CCC(F)(F)F)Cc1ccc(Cl)nc1 [Compound 3] | 96%
19 | O=[N+]([O-])C=C(NCCN(Cc1ccc(Cl)nc1)Cc1ccc(Cl)nc1)SCc1c(F)c(F)c(F)c(F)c1F [Compound 318] | 100%
20 | C#CCN(CCNC(=N[N+](=O)[O-])SC)Cc1ccc(Cl)nc1 [Compound 279] | 100%
21 | C#CCN(CCNC(=C[N+](=O)[O-])OCCOC)Cc1ccc(Cl)nc1 [Compound 246] | 100%
22 | COCCN(CCNC(=C[N+](=O)[O-])SC)Cc1ccc(Cl)nc1 [Compound 4] | 100%

Row | Structure (SMILES) | Percent Growth Inhibition
23 | C=C(Cl)CN(CCNC(=C[N+](=O)[O-])SC)Cc1ccc(Cl)nc1 [Compound 225] | 89%
24 | CSC(=C[N+](=O)[O-])NCCN(CCCF)Cc1ccc(Cl)nc1 [Compound 2] | 100%
25 | CCOCCN(CCNC(=C[N+](=O)[O-])SC)Cc1ccc(Cl)nc1 [Compound 5] | 100%
26 | COCCOCCN(CCNC(=C[N+](=O)[O-])OCCOC)Cc1ccc(Cl)nc1 [Compound 8] | 100%
27 | CSC(=C[N+](=O)[O-])NCCN(Cc1cccnc1)Cc1ccc(Cl)nc1 [Compound 192] | 92%
28 | COc1ccc(CN(CCNC(=N[N+](=O)[O-])SCc2ccc(Cl)cc2)Cc2ccc(Cl)nc2)cc1 [Compound 311] | 100%
29 | C#CCN(CCNC(=C[N+](=O)[O-])SCC1CCCCC1)Cc1ccc(Cl)nc1 [Compound 257] | 100%
30 | O=[N+]([O-])C=C(NCCN(Cc1ccc(Cl)nc1)Cc1ccc(Cl)nc1)SCc1cccc(Cl)c1 [Compound 315] | 98%
31 | CSC(=C[N+](=O)[O-])NCCN(Cc1ccc(Cl)nc1)Cc1ccoc1 [Compound 19] | 100%
32 | CCCCCC#CCN(CCNC(=C[N+](=O)[O-])SC)Cc1ccc(Cl)nc1 [Compound 255] | 88%
33 | CSC(=C[N+](=O)[O-])NCCN(CC#Cc1cncnc1)Cc1ccc(Cl)nc1 [Compound 304] | 61%
34 | O=[N+]([O-])C=C(NCCN(Cc1ccc(Cl)nc1)Cc1ccc(Cl)nc1)SCC1CCCCC1 [Compound 203] | 100%
35 | C#CCCN(CCNC(=C[N+](=O)[O-])SC)Cc1ccc(Cl)nc1 [Compound 252] | 100%
36 | O=[N+]([O-])C=C(NCCN(Cc1ccc(Cl)nc1)Cc1ccc(Cl)nc1)SCc1ccc(C(F)(F)F)cc1 [Compound 324] | 100%
37 | CC=CCN(CCNC(=C[N+](=O)[O-])SC)Cc1ccc(Cl)nc1 [Compound 223] | 98%
38 | C=CCN(CCNC(=N[N+](=O)[O-])SC)Cc1ccc(Cl)nc1 [Compound 231] | 100%
39 | O=[N+]([O-])C=C(NCCN(Cc1ccc(Cl)nc1)Cc1ccc(Cl)nc1)OCC1CCCCC1 [Compound 190] | 100%
40 | C#CCN(CCN1COCNC1=N[N+](=O)[O-])Cc1ccc(Cl)nc1 [Compound 558] | 85%
41 | CC#CCCN(CCNC(=C[N+](=O)[O-])SC)Cc1ccc(Cl)nc1 [Compound 254] | 100%

Row | Structure (SMILES) | Percent Growth Inhibition
42 | Cc1cccc(CSC(=C[N+](=O)[O-])NCCN(Cc2ccc(Cl)nc2)Cc2ccc(Cl)nc2)c1 [Compound 320] | 96%
43 | COc1ccc(CN(CCNC(=N[N+](=O)[O-])SCc2ccccc2)Cc2ccc(Cl)nc2)cc1 [Compound 310] | 100%
44 | CSC(=C[N+](=O)[O-])NCCN(O)Cc1ccc(Cl)nc1 [Compound 9] | 91%
45 | CSC(=C[N+](=O)[O-])NCCN(Cc1ccc(Cl)nc1)Cc1ccco1 [Compound 18] | 100%
46 | COC(=C[N+](=O)[O-])NCCN(CCCF)Cc1ccc(Cl)nc1 [Compound 1] | 100%
47 | CSC(=C[N+](=O)[O-])NCCN(CC#N)Cc1ccc(Cl)nc1 [Compound 10] | 90%
48 | Cc1ccc(CSC(=C[N+](=O)[O-])NCCN(Cc2ccc(Cl)nc2)Cc2ccc(Cl)nc2)cc1 [Compound 321] | 100%
49 | COc1ccc(CSC(=C[N+](=O)[O-])NCCN(Cc2ccc(Cl)nc2)Cc2ccc(Cl)nc2)cc1 [Compound 327] | 100%
50 | CC(C)COC(=C[N+](=O)[O-])NCCN(Cc1ccc(Cl)nc1)Cc1ccc(Cl)nc1 [Compound 189] | 100%
51 | CSC(=C[N+](=O)[O-])NCCN(Cc1ccc(Cl)nc1)CC1CCCCO1 (centres unmarked) [Compound 15] | 85%
52 | CSC(=C[N+](=O)[O-])NCCN(CCC(F)=C(F)F)Cc1ccc(Cl)nc1 [Compound 229] | 96%
53 | O=[N+]([O-])C=C(NCCN(Cc1ccc(Cl)nc1)Cc1ccc(Cl)nc1)SCc1ccccc1Cl [Compound 314] | 100%
54 | COc1cccc(CSC(=C[N+](=O)[O-])NCCN(Cc2ccc(Cl)nc2)Cc2ccc(Cl)nc2)c1 [Compound 326] | 100%
55 | C#CCCN(CCNC(=C[N+](=O)[O-])SCC1CCCCC1)Cc1ccc(Cl)nc1 [Compound 258] | 100%
56 | CSC(=C[N+](=O)[O-])NCCN(Cc1ccc(Cl)nc1)Cc1ccc(Cl)nc1 [Compound 198] | 50%
57 | CSC(=C[N+](=O)[O-])NCCN(CC=C(Cl)Cl)Cc1ccc(Cl)nc1 [Compound 228] | 100%
58 | CSC(=C[N+](=O)[O-])NCCN(CC=CCl)Cc1ccc(Cl)nc1 [Compound 224] | 100%
59 | COCCOCCN(CCNC(=C[N+](=O)[O-])OC)Cc1ccc(Cl)nc1 [Compound 6] | 95%
